In US20090124651A1, “CATECHOLAMINE DERIVATIVES AND PRODRUGS THEREOF” (H. LUNDBECK A/S, priority 2007, published 2009):

How the values were obtained:
motility deficits = assay: Superiority model: mouse model of severe dopamine depletion; type: in vivo
Description: Both Apomorphine and L-DOPA stimulate D1 and D2-like dopamine receptors.

Parkinson's disease = conditions: PD patients, intravenous (IV); cited from earlier work
[1] = man, oral dosing; cited from earlier work

Compound	reversal of motility deficits / restoration of locomotion (motility deficits)	antiparkinson efficacy (Parkinson's disease)	oral bioavailability [1] [%]
CN1CCc2cccc3c2[C@H]1Cc1ccc(O)c(O)c1-3 [Apomorphine]	able to reverse motility deficits		
N[C@@H](Cc1ccc(O)c(O)c1)C(=O)O [L-DOPA, (levo)-3,4-dihydroxy phenylalanine]	able to reverse motility deficits		
CCCc1cc2c(s1)CN[C@@H]1CCc3cc(OC(C)=O)c(OC(C)=O)cc3[C@@H]21 [Adrogolide]		comparable to that of L-DOPA	~4
